Test results reported in patent US20030105093A1, “MTP activity-lowering compositions” (priority 1998, published 2003).
Counter-ions that a name gives are not always drawn.

Assays:
[1] = test system: MTP (microsomal triglyceride transfer protein); experiment: MTP activity-lowering activity: liver MTP activity after 2 weeks' dosing of rats; assay type: in vivo; conditions: SD rats, liver homogenate, control group 9.09 ± 1.0
Protocol: SD rats weighing about 200 g in groups of 6 were given 20 mg or 60 mg of the hydrochloride of the amino acid of the invention in 10 ml of water in 3 divided doses daily for 2 weeks. Thereafter, the liver was excised and homogenized using a homogenizing buffer (50 mM Tris (pH 7.4), 50 mM potassium chloride, 1.5 mM EDTA, leupeptin (5 μg/ml) and 2 mM phenylmethylsulfonyl fluoride) and the homogenate was centrifuged to give a liver homogenate. This liver homogenate was adjusted to a protein concentration of about 2 mg/mL with the same homogenizing buffer and 1 part of deoxycholate solution (0.56%, pH 7.5) was added to 10 parts of the homogenate. The reaction was then carried out at 4° C. for 30 minutes, whereby MTP was liberated from the microsomal fraction. The membrane fraction was then removed by centrifugation to give a supernatant. This supernatant was diluted with Tris buffer (a buffer solution containing 15 mM Tris (pH 7.4), 40 mM NaCl, 1 mM EDTA, 0.02% NaN3) and dialyzed against the same buffer at 4° C. overnight. The dialysate thus obtained was analyzed for MTP activity by the method of J. R. Wetterau [Science, 258, 999 (1992)].

[2] = test system: HepG2 cells (apo B secretion); experiment: Apo B antisecretory activity (1): apo B secreted into medium by HepG2 cells, ELISA; assay type: cell-based, human; conditions: for Apo B secretions (μg/well): 24 hours' culture, control group 9.92 ± 0.80
Protocol: HepG2 cells (100×10^4 cells/dish) were sown on 3.5 cm dishes and precultured using 1 ml DME (containing 10% FCS) medium per dish. Following this preculture, the cells were washed with DME medium twice, added to the test medium, and cultured at 37° C. under 95% air-5% carbon dioxide for 24 hours. The test medium was prepared by dissolving cycloalliin in dimethyl sulfoxide and diluted with DME medium containing 1% ESA and 0.5 mM oleic acid to a final cycloalliin concentration of 10^−6 M or 10^−4 M.
After 24 hours' culture, the medium was recovered and the amount of apo B secreted into the medium was determined by ELISA. Thus, anti-human apo B antibody (a 100-fold dilution) was distributed into a 96-well ELISA plate, 100 μL per well, and incubated at 37° C. for 2 hours. Then, 100 μL/well of Block Ace was added and the plate was further incubated at 37° C. for 2 hours. The wells were washed with PBS-Tween×3 and 100 μL each of apo B standard solution and HepG2 culture were added, followed by further incubation at 4° C. for 16 hours. After the wells were washed with PBS-Tween×3, 100 μL/well of anti-human apo B marker antibody (a 200-fold dilution) was added and the plate was incubated at 37° C. for 2 hours. The wells were washed with PBS-Tween×3, then 100 μL/well of the substrate solution was added, and the plate was incubated at 25° C. for 30 minutes. The reaction was stopped by adding 50 μL of 4.5 M H2SO4 and the absorbance at 482 nm was measured to estimate the amount of apo B secretion.

[3] = test system: HepG2 cells (TG secretion); experiment: TG antisecretory activity: secreted [14C]-labeled triglyceride in HepG2 medium; assay type: cell-based; conditions: HepG2, 10 μM, 24 hours of culture; control group 161.2 ± 2.2
Protocol: HepG2 cells were cultured in DME medium supplemented with 1% BSA and 0.5 mM oleic acid for 24 hours. Then, the medium was changed to 1% BSA-DME containing 10 μM of the amino acid of the invention and simultaneously 0.5 μci of [^14C] acetic acid was added. The cells and medium were recovered after 24 hours of culture. The recovered cells were homogenized by sonication, and after quantitation of protein, the amount of secreted triglyceride (TG) was determined from the amount of labeled lipid in the medium.

[4] = 60 mg daily in 3 divided doses for 2 weeks

Molecule: C[C@H]1C[S@+]([O-])C[C@@H](C(=O)O)N1 [Cycloalliin HCl, (1S, 3R, 5S)-5-methyl-1,4-thiazane-3-carboxylic acid 1-oxide]
- MTP activity (%) ([1]; 20 mg daily in 3 divided doses for 2 weeks): 6.12 ± 0.7 %
- MTP activity (%) [1, 4]: 4.92 ± 1.0 %

Molecule: C[C@H]1C[S@+]([O-])C[C@@H](C(=O)O)N1 [Cycloalliin, (1S, 3R, 5S)-5-methyl-1,4-thiazane-3-carboxylic acid 1-oxide]
- Apo B secretions (μg/well) ([2]; HepG2, 10^−4 M): 7.67 ± 1.31 μg/well
- Effect on apo B secretion (in words) ([2]; HepG2, 10^−6 M or 10^−4 M, 24 hours, vs control group): significant suppression of apo B secretion
- Apo B secretions (μg/well) ([2]; HepG2, 10^−6 M): 7.54 ± 1.13 μg/well

Molecule: S-methyl-L-cysteine sulfoxide [S-methyl-L-cysteine sulfoxide HCl]
- MTP activity (%) [1, 4]: 5.43 ± 0.6 %

Molecule: S-n-propyl-L-cysteine sulfoxide
- TG secretions ([^14C] dpm × 10^−2/mg protein) [3]: 105.8 ± 18.9 [^14C] dpm × 10^−2/mg protein
